Source: ChEMBL document CHEMBL2034957, “Synthesis and antitumor evaluation of novel benzo[d]pyrrolo[2,1-b]thiazole derivatives” (Eur J Med Chem, 2012)
The source made the active and inactive calls. No cut-off for these calls is given here.

Key:
CCRF-CEM [1] = test: Cytotoxicity against human CCRF-CEM cells after 72 hrs by XTT assay; format: functional, cell-based
CCRF-CEM [2] = test: Cytotoxicity against human taxol-resistant CCRF-CEM cells after 72 hrs by XTT assay; format: functional, cell-based
CCRF-CEM [3] = test: Cytotoxicity against human vinblastine-resistant CCRF-CEM cells after 72 hrs by XTT assay; format: functional, cell-based
MX1 [4] = test: Cytotoxicity against human MX1 cells after 72 hrs by SRB assay; format: functional, cell-based; conditions: MX1, 72 h
HCT-116 = test: Cytotoxicity against human HCT116 cells after 72 hrs by SRB assay; format: functional, cell-based; conditions: HCT-116, 72 h
[5] = Cytotoxicity against human H1299 cells after 72 hrs by alamar blue assay; format: functional, cell-based; conditions: NCI-H1299, 72 h
PC-3 = test: Cytotoxicity against human PC3 cells after 72 hrs by alamar blue assay; format: functional, cell-based; conditions: PC-3, 72 h
[6] = Cytotoxicity against human OECM1 cells after 72 hrs by alamar blue assay; format: functional, cell-based; conditions: OECM1, 72 h
[7] = Cytotoxicity against human U87 cells after 72 hrs by alamar blue assay; format: functional, cell-based, U-87MG ATCC; conditions: U-87 MG
MX1 [8] = test: Antitumor activity against human MX1 cells xenografted in athymic nude mouse assessed as tumor remission at 20 mg/kg, iv administered q2d for 3 days followed by 25 mg/kg, iv q2d for 5 days measured on day 26 post-tumor implantation; format: functional, organism-based
MX1 [9] = test: Antitumor activity against human MX1 cells xenografted in athymic nude mouse assessed as tumor remission at 20 mg/kg, iv administered q2d for 3 days followed by 25 mg/kg, iv q2d for 4 days measured on day 26 post-tumor implantation; format: functional, organism-based
MX1 [10] = test: Antitumor activity against human MX1 cells xenografted in athymic nude mouse assessed as tumor remission at 20 mg/kg, iv administered q2d for 3 days followed by 25 mg/kg, iv q2d for 4 days measured on day 28 post-tumor implantation; format: functional, organism-based
Mus musculus = test: Toxicity in athymic nude mouse assessed as weight loss at 20 mg/kg, iv administered q2d for 3 days followed by 25 mg/kg, iv q2d for 5 days; format: organism-based; conditions: in vivo
[11] = Cell cycle arrest in human H1299 cells assessed as G2/M phase cells at 4.5 to 9 uM after 24 hrs by propidium iodidee-based flow cytometry; format: functional; conditions: NCI-H1299
[12] = Cell cycle arrest in human H1299 cells assessed as reduction in G2/M phase cells at 4.5 to 9 uM after 48 hrs by propidium iodidee-based flow cytometry; format: functional; conditions: NCI-H1299
[13] = Cell cycle arrest in human H1299 cells assessed as increase in sub-G1 phase cells at 4.5 to 9 uM after 24 hrs by propidium iodidee-based flow cytometry; format: functional; conditions: NCI-H1299
[14] = Cell cycle arrest in human H1299 cells at 18 uM after 24 hrs by propidium iodidee-based flow cytometry; format: functional; conditions: NCI-H1299
[15] = Cell cycle arrest in human H1299 cells at 18 uM after 48 hrs by propidium iodidee-based flow cytometry; format: functional; conditions: NCI-H1299
Nucleic Acid = test: Induction of Escherichia coli pEGFP-N1 DNA interstrand cross-linking at 1 to 20 uM after 2 hrs using ethidium bromide staining by alkaline agarose gel shift assay; format: nucleic-acid assay
CCRF-CEM [16] = test: Ratio of IC50 for human taxol-resistant CCRF-CEM cells to IC50 for human CCRF-CEM cells; format: functional
CCRF-CEM [17] = test: Ratio of IC50 for human vinblastine-resistant CCRF-CEM cells to IC50 for human CCRF-CEM cells; format: functional
[18] = Toxicity in iv dosed athymic nude mouse assessed as mortality; format: organism-based; conditions: in vivo

`CC(C)NC(=O)OCc1c(COC(=O)NC(C)C)c2sc3ccccc3n2c1-c1ccc(Cl)cc1` gave an IC50 (CCRF-CEM [1]) of 0.08 µM, an IC50 (CCRF-CEM [2]) of 0.39 µM and an IC50 (CCRF-CEM [3]) of 0.42 µM. It also gave an IC50 (MX1 [4]) of 1.19 µM, an IC50 (HCT-116) of 1.7 µM and an IC50 [5] of 8.75 µM. It also gave an IC50 (PC-3) of 13.7 µM, an IC50 [6] of 7.54 µM and an IC50 [7] of 29 µM. The Activity (MX1 [8]) was “Active”, the Activity (MX1 [9]) was “Active” and the Activity (MX1 [10]) was “Active”. For the same compound, the Activity (Mus musculus) was 10%, the Activity [11] was “Active” and the Activity [12] was “Active”. The Activity [13] was “Active”, the Activity [14] was “Active” and the Activity [15] was “inactive”. For the same compound, the Activity (Nucleic Acid) was “Active”, the “Ratio IC50” value (CCRF-CEM [16]) was 4.87 and the “Ratio IC50” value (CCRF-CEM [17]) was 5.25. The MTD [18] was 20 mg/kg.
